Laboratory results from patent US20250340590A1, “PEPTIDE HAVING ANTI-INFLAMMATORY ACTIVITY AND USE THEREOF” (CAREGEN CO., LTD., priority 2021, published 2025).

What was measured:
IL-17 = IL-17 secretion by ELISA in TNFα-induced mouse splenocytes; assay type: cell-based; settings: TNFα 20 nM, 24 hours
Procedure: Inflammation was induced by treating mouse splenocytes with the inflammatory cytokine TNFα, and the secretion amounts of the inflammatory cytokines IL-17, IL-1B, and IFNγ were confirmed. IL-17 corresponds to a pro-inflammatory cytokine, and the descriptions of IL-1β and IFNγ are the same as above.
Mouse splenocytes were dispensed into a 24-well plate at a concentration of 1×10^7 cells/well and cultured until the next day. The medium was replaced with serum-free medium, and after 4 hours, the cells were treated with TNFα and the peptide of the present invention and then cultured again for another 24 hours. In order to induce inflammation, the cells were treated with TNFα at 20 nM, and the peptide at 5 μM and 50 μM, respectively. The mouse splenocytes in the group in which inflammation was not induced due to untreatment with TNFα (NON); the negative control group in which the cells were treated with TNFα but not treated with the peptide (NC); and the group in which the cells were treated with TNFα along with the peptide of the present invention at the same concentration as above, respectively, were reacted as described above and the cell cultures were recovered. […]

IFNγ = IFNγ secretion by ELISA in mouse splenocytes induced with LPS, TGFβ and IL-23; assay type: cell-based; settings: LPS 2 μg/mL, TGFβ 20 ng/ml, IL-23 20 ng/mL, 24 hours
Source text: Inflammation was induced by treating mouse splenocytes with LPS, which is an inflammation-inducing antigen, and TGFβ and IL-23, which are inflammatory cytokines, and the secretion amounts of the inflammatory cytokines IL-17, IL-1β, and IFNγ were confirmed. The descriptions of IL-17, IL-1B, and IFNγ are the same as above.
Mouse splenocytes were dispensed into a 24-well plate at a concentration of 1×10^7 cells/well and cultured until the next day. The medium was replaced with serum-free medium, and after 4 hours, the cells were treated with LPS, TGFβ, and IL-23 and the peptide of the present invention and then cultured again for another 24 hours. In order to induce inflammation, the cells were treated with LPS at 2 μg/mL, TGFβ at 20 ng/ml, IL-23 at 20 ng/mL, and the peptide at 5 μM and 50 μM, respectively. The mouse splenocytes in the group in which inflammation was not induced due to untreatment with LPS, TGFβ, and IL-23 (NON); the negative control group in which the cells were treated with LPS, TGFβ, and IL-23 but not treated with the peptide (NC); and the group in which the cells were treated with LPS, TGFβ, and IL-23 along with the peptide of the present invention at the same concentration as above, respectively, were reacted as described above and the cell cultures were recovered. […]

iNos = iNos protein level by Western blot in HaCaT cells induced with LPS, TGFβ and IL-23; assay type: cell-based, human; settings: IL-23 and LPS, peptide at 5 μM and 50 μM, 24 hours, compared to group not treated with the peptide
Procedure: In order to further confirm the anti-inflammatory effect of the peptide treatment of the present invention in addition to the results of Experimental Example 1, HaCaT cells were treated with Th17 (type 17), which is an inflammation-inducing substance, and the expression levels of inflammation-inducing markers iNos and Cox2 were confirmed. As the inflammation-inducing substances, the cells were treated with LPS, TGFβ, and IL-23, and since iNos is an enzyme involved in the production of nitric oxide (NO), which is an inflammation-related protein induced by LPS, etc., it is possible to confirm whether inflammation is inhibited by measuring the expression levels of iNos and Cox2.
HaCaT cells were dispensed into a 24-well plate at a concentration of 3× 10^5 cells/well and cultured until the next day. The medium was replaced with serum-free medium, and after 4 hours, the cells were treated with TGFβ, IL-23, and LPS, which are Th17 type inflammation-inducing cytokines, and then with the peptide of the present invention and cultured again for another 24 hours. […] In order to perform Western blotting, the amounts of iNos and Cox2 proteins were measured using an anti-iNos antibody and an anti-Cox2 antibody (Cell Signaling Technology, USA). […]

TWNS [peptide of the present invention]
secretion amount of IL-17 (IL-17; peptide at 5 μM): slightly increased | secretion amount of IL-17 (IL-17; peptide at 50 μM): decreased | secretion amount of IFNγ (IFNγ; peptide at 5 μM): decreased | secretion amount of IFNγ (IFNγ; peptide at 50 μM): decreased | expression level of iNos protein (iNos): decreased
